Source: PMC8954220, “Sparsomycin Exhibits Potent Antiplasmodial Activity In Vitro and In Vivo” (Pharmaceutics, 2022)
Like-named read-outs stand apart in the source and are kept apart here. Each block holds one compound with its values, some of them ahead of it.

What was measured:
P. falciparum K1 = assay: SYBR Green I-based fluorescence in vitro growth inhibition assay; assay type: cell-based, Plasmodium falciparum; settings: for IC50: Plasmodium falciparum, read-out: IC50 P. falciparum K1
Protocol: (§1) P. falciparum strains 3D7 and K1 were cultivated in 2% washed human O-positive erythrocytes (supplied by Japanese Red Cross Society, Hokkaido, Japan) using a multi-gas incubator (37 °C, 5% CO2 and 5% O2).
(§2) Briefly, test compounds were diluted in complete medium to eight desired concentrations (2-fold serial dilution). […] Next, 50 μL of synchronous parasites at 0.5% parasitemia and 2% hematocrit was seeded in a 96-well plate containing 50 μL of test compounds. The 96-well plate was incubated for 72 h at 37 °C, 5% CO2 and 5% O2. Next, 100 μL of lysis buffer containing 0.02% (v/v) SYBR Green I was added to each well and mixed and then the 96-well plate was incubated at room temperature for 2 h in the dark. […] Erythrocytes treated with 1% DMSO were used as a negative control and wells containing only test compounds and erythrocytes were used to correct background signals. In at least three independent trials, the inhibition assay was performed in quadruplicate for each concentration.

P. falciparum 3D7 [1] = assay: as above; assay type: cell-based, Plasmodium falciparum; settings: for IC50: Plasmodium falciparum, read-out: IC50 P. falciparum 3D7
Protocol: as §1, §2

[2] = In vitro cytotoxicity, cell viability assay (CCK-8); settings: human, human foreskin fibroblasts (HFFs)
Protocol: A cell viability assay was used to evaluate the cytotoxic action of Sm as described previously [18]. Briefly, a 100 μL cell suspension was seeded in a 96-well plate at a concentration of 1 × 10^5 cells/mL in DMEM containing 10% FBS and incubated for 48 h at 37 °C and 5% CO2. Next, 2-fold dilutions (total of eight concentrations) of test compounds in DMEM were added in quadruplicate to each well and incubated for an additional 72 h.
Data were analyzed using GraphPad Prism 8 (GraphPad Software, Inc., La Jolla, CA, USA). IC50 or CC50 values were calculated from three independent experiments using a non-linear regression fit to logarithm concentration value of the compound versus inhibition percentage of parasite or cell growth, respectively.

P. falciparum 3D7 [3] = assay: Microscopic analysis of parasitemia and morphology (Giemsa-stained thin blood smears); assay type: cell-based, Plasmodium falciparum
Protocol: The parasites were tightly synchronized using a two-step sorbitol treatment protocol and used at the ring stage with 0.5% parasitemia and 2% hematocrit. Sm (50 and 10 nM) in complete medium and 1% DMSO in complete medium were used as the treated and untreated groups, respectively, in this assay. Subsequently, the Giemsa-stained thin blood smears of each treatment group were prepared after 1, 24, 48, or 72 h of incubation. After 72 h, incubation was continued after changing the medium in either the presence (unwashed group) or absence (washed group) of Sm for up to 144 h. Subsequently, the Giemsa-stained thin blood smears of each treatment group were prepared at 96, 120 and 144 h. The blood smears were observed using a BZ-900 all-in-one microscope (Keyence BioRevo, Tokyo, Japan). The parasitemia levels were determined by enumerating the number of infected erythrocytes in relation to uninfected erythrocytes (a minimum of 500 cells were counted). The assay was performed in triplicate for each concentration and time point.

retinas of animals = tested on: retinas of animals; design: method as in PMID 3310108; settings: animals treated with toxic doses; cited from earlier work
[4] = tested on: patients (with advanced carcinoma); design: method as in PMID 5928140; settings: daily doses; after 13 days (total dose 0.24 mg/kg) and 15 days (total dose 0.15 mg/kg); cited from earlier work
mice = settings: i.p. administration; cited from earlier work
P. yoelii 17XNL = assay: Uncomplicated rodent malaria model, 7-day treatment (modified Peters' test); assay type: in vivo, C57BL/6 J mice
Protocol: (§3) Male C57BL/6 J mice (8 weeks old with body weight of 20–25 g; six mice per group) were purchased from Japan CLEA (Tokyo, Japan). The mice were allowed free access to water and food (CLEA Rodent Diet CE-2; Japan CLEA, Tokyo, Japan). The room temperature (24 °C), relative humidity (50%) and lighting (light from 8 a.m. to 8 p.m.) were adjusted and controlled. P. yoelii 17XNL and P. berghei ANKA were recovered from frozen packed erythrocyte stocks via passage in mice following intraperitoneal (i.p.) injection. Challenge experiments were performed with i.p. injections of 1 × 10^7 fresh infected erythrocytes from donor mice (designated as 0 days post-infection (dpi)). Approximately 2 h after the injection, 2 μL of blood was collected from the tip of the mice’s tail and the parasitemia levels were checked using Giemsa-stained thin blood smears. When the parasitemia level reached 1%, the infected mice were intraperitoneally treated with vehicle (1 × PBS) or Sm at a dose of 100 or 300 μg/kg (modified from reported IC50 in Ref. [22]) once daily for 7 days (0–6 dpi; modified Peters’ test) for P. yoelii 17XNL and 300 μg/kg once daily for 4 (0–3 dpi; Peters’ 4-day test) or 7 days (0–6 dpi, [23]) for P. berghei ANKA. The survival and clinical signs of mice were monitored daily after infection. Mice with high clinical signs (arched back, immobility, >20% body weight loss and pain sign) were euthanized immediately. Parasitemia in P. yoelii 17XNL-infected mice was observed daily using Giemsa-stained thin blood smears (up to 30 dpi).
A p-value of <0.05 was considered statistically significant and is shown as an asterisk or a symbol, defined in each table/figure legend together with the name of the test used.

P. berghei ANKA = assay: Complicated rodent malaria model, survival (Peters' 4-day test or 7-day regimen); assay type: in vivo, C57BL/6 J mice; settings: up to 25 dpi
Protocol: as §3, with “Mice with high clinical signs (arched back, immobility, >20% body weight loss and pain sign) were euthanized immediately. Parasitemia in P. yoelii 17XNL-infected mice was observed daily using Giemsa-stained thin blood smears (up to 30 dpi).” left out

[5] = Erythrocyte hemolysis assay; assay type: cell-based; settings: human, 3 h at 37 °C, mean ± SD, read-out: RBC Hemolysis Rate (%) at 100 μM
Protocol: An erythrocyte hemolysis assay was performed as previously described [21]. Briefly, 100 μL of each compound (final concentration, 100 μM) in 1× phosphate-buffered saline (PBS) was seeded in a 96-well plate and 100 μL of a 3% erythrocyte suspension in PBS was added. The plate was incubated for 3 h at 37 °C, 5% CO2 and 5% O2 and then centrifuged at 1300× g for 5 min. Subsequently, 100 μL of the supernatant of each mixture was transferred to a new 96-well plate and the absorbance was recorded at 540 nm. […] The erythrocyte hemolysis rate was calculated using the following formula: hemolysis rate = ([Asample − Anegative control]/[Apositive control − Anegative control] × 100), where A is absorbance [21]. The experiments were performed in triplicate and repeated three times independently.

- IC50 (P. falciparum K1; K1, 72 h exposure, mean ± SD of three independent experiments): 19.9 ± 1.51 nM
- IC50 (P. falciparum 3D7 [1]; 3D7, 72 h exposure, mean ± SD of three independent experiments): 13.2 ± 2.66 nM
SMILES: C[C@@H]1CC[C@H]2[C@@H](C)C(=O)O[C@@H]3O[C@@]4(C)CC[C@@H]1[C@]32OO4 [Artemisinin, artemisinin, reference compound]

SMILES: CCN(CC)CCCC(C)Nc1ccnc2cc(Cl)ccc12 (stereo not drawn) [Chloroquine, Chloroquine diphosphate, reference compound]
- IC50 (P. falciparum K1; K1, 72 h): 740 ± 95.7 nM
- IC50 (P. falciparum 3D7 [1]; 3D7, 72 h): 26.2 ± 3.66 nM

SMILES: CSC[S@+]([O-])C[C@H](CO)NC(=O)/C=C/c1c(C)[nH]c(=O)[nH]c1=O [Sparsomycin, sparsomycin]
- CC50 at 72 h [2]: 1140 ± 30 nM
- Parasite morphology (P. falciparum 3D7 [3]; 50 nM for 72 h): induced morphological alterations, including shrinkage
- Parasitemia levels along the incubation period (P. falciparum 3D7 [3]; 10 or 50 nM, 1–72 h): not increased
- Parasite life cycle stage under exposure (P. falciparum 3D7 [3]; 10 or 50 nM, 1–72 h of incubation, ring-stage synchronized): blocked in the ring stage
- Parasite growth after removal of compound (washed group) (P. falciparum 3D7 [3]; 72 h exposure to 10 or 50 nM, then further 72 h without compound (up to 144 h)): not restored
- Pathological changes in the retinas (retinas of animals): no observable pathological changes
- Patients developing ring scotoma (Sm-related retinopathy) [4]: two out of five patients
- LD50 (mice): 170 to 380 μg/kg per injection
- Parasitemia levels versus control (P. yoelii 17XNL; 100 μg/kg i.p. once daily for 7 days): did not significantly alter
- Parasitemia versus control (P. yoelii 17XNL; 300 μg/kg i.p. once daily for 7 days): significantly reduced
- Parasitemia peak (P. yoelii 17XNL; 300 μg/kg i.p. once daily for 7 days, peak at 11 dpi, control 40.13% (12 dpi)): 18.85%
- Mortality (P. yoelii 17XNL; 100 or 300 μg/kg i.p. once daily for 7 days, up to 30 dpi): No mortality
- Prolongation of survival (P. berghei ANKA; 300 μg/kg i.p. once daily for 4 days, significant (p < 0.05)): 33.33%
- Prolongation of survival (P. berghei ANKA; 300 μg/kg i.p. once daily for 7 days, statistically insignificant (p > 0.05)): 33.33%
- hemolysis at 3 h, 100 µM [5]: 1.04 ± 0.23%
- IC50 (P. falciparum K1; K1, 72 h): 25.4 ± 8.15 nM
- Resistance Index (P. falciparum K1; ratio between the IC50 values of P. falciparum K1 and 3D7): 2.1
- SI for P. falciparum K1 (P. falciparum K1; selectivity index, ratio between IC50 (K1) and CC50 (HFF)): 44.83
- IC50 (P. falciparum 3D7 [1]; 3D7, 72 h): 12.1 ± 4.41 nM
- SI for P. falciparum 3D7 (P. falciparum 3D7 [1]; selectivity index, ratio between IC50 (3D7) and CC50 (HFF)): 94.45
